Test results from the supplement of paper PMC11451515.

Experiments:
Conditions in all cases: 48 h
P12-Ichikawa [1] = assay: cell viability relative to DMSO control; higher = less cytotoxic
Procedure, shortened: (§1)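 Viability is expressed as a percentage of DMSO wells within each plate, and cell-free wells serve as background. Seeding densities in the 1536-well plates (5 μl) were 500 cells/well for NOMO1 or SEM leukemia cells and 1000 cells/well for P12-Ichikawa. Each line was adapted for at least four passages in each medium. Library compounds in DMSO were pin-dosed at 47 μM to 0.79 nM (11 points, threefold), and CellTiter-Glo One luminescence was read after 48 h at 37°C.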

SEM cells [2] = assay: as above
Procedure, shortened: as §1

NOMO1 [3] = assay: AUC of viability dose-response curve (% viability x log10 dose units); higher = less sensitive
Procedure, shortened: (§2)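 Medium-adapted leukemia cells in 1536-well plates, at 500 or 1000 cells/well, were incubated for 48 h at 37°C with library compounds in DMSO at 11 threefold doses from 47 μM to 0.79 nM. CellTiter-Glo One luminescence normalised per plate to DMSO and cell-free wells was fitted with a four-parameter log-logistic model over log10 doses. Area under the curve was integrated from this fit by trapezoidal rule, with curves beyond full viability scaled and failed quality-control curves removed.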

P12-Ichikawa [4] = assay: as above
Procedure, shortened: as §2

SEM cells [5] = assay: as above
Procedure, shortened: as §2

NOMO1 [6] = assay: cell viability relative to DMSO control; higher = less cytotoxic
Procedure, shortened: as §1

COc1cc2nc(N3CCN(C(=O)C4COc5ccccc5O4)CC3)nc(N)c2cc1OC (configuration not stated)
cell viability [%], HPLM + 10% dialyzed FBS
Conditions	P12-Ichikawa [1]	SEM cells [2]
0.000781 µM	122	123
0.00234 µM	125	125
0.00702 µM	137	115
0.0211 µM	127	126
0.0632 µM	129	122
0.19 µM	132	128
0.569 µM	132	113
1.71 µM	131	132
5.12 µM	115	120
15.4 µM	112	119
46.1 µM	82.3	91.4

AUC of viability dose-response curve
Conditions	NOMO1 [3]	P12-Ichikawa [4]	SEM cells [5]
HPLM + 10% dialyzed FBS	439	457	469
RPMI 5 mM glucose + 10% FBS	452	461	450
RPMI 5 mM glucose + 10% dialyzed FBS	456	467	447

CC(C)C1CCC(C(=O)N[C@H](Cc2ccccc2)C(=O)O)CC1 (some centres not stated)
cell viability [%]
Conditions	NOMO1 [6]	P12-Ichikawa [1]	SEM cells [2]
HPLM + 10% dialyzed FBS, 0.000781 µM	87.3	100	92.5
HPLM + 10% dialyzed FBS, 0.00234 µM	100	95.9	93.8
HPLM + 10% dialyzed FBS, 0.00702 µM	75.4	98.9	91.7
HPLM + 10% dialyzed FBS, 0.0211 µM	90.4	103	108
HPLM + 10% dialyzed FBS, 0.0632 µM	89.9	95	71.1
HPLM + 10% dialyzed FBS, 0.19 µM	84.5	99.5	26.3
HPLM + 10% dialyzed FBS, 0.569 µM	81.4	92.5	82.7
HPLM + 10% dialyzed FBS, 1.71 µM	88.6	88.2	97.6
HPLM + 10% dialyzed FBS, 5.12 µM	78	93.6	85.2
HPLM + 10% dialyzed FBS, 15.4 µM	76.4	87.4	80.3
HPLM + 10% dialyzed FBS, 46.1 µM	91.4	86.9	78.5
RPMI 5 mM glucose + 10% FBS, 0.000781 µM	93.5	94.3	108
RPMI 5 mM glucose + 10% FBS, 0.00234 µM	88.5	97.8	94.1
RPMI 5 mM glucose + 10% FBS, 0.00702 µM	91.8	91.9	90
RPMI 5 mM glucose + 10% FBS, 0.0211 µM	89.7	96.9	112
RPMI 5 mM glucose + 10% FBS, 0.0632 µM	92.2	98.2	80.9
RPMI 5 mM glucose + 10% FBS, 0.19 µM	91.6	93.7	21.2
RPMI 5 mM glucose + 10% FBS, 0.569 µM	85.1	84.4	62.7
RPMI 5 mM glucose + 10% FBS, 1.71 µM	80.7	88.3	85.6
RPMI 5 mM glucose + 10% FBS, 5.12 µM	84.2	86.3	98
RPMI 5 mM glucose + 10% FBS, 15.4 µM	81.4	83.5	95.4
RPMI 5 mM glucose + 10% FBS, 46.1 µM	84.6	87.1	77.8
RPMI 5 mM glucose + 10% dialyzed FBS, 0.000781 µM	92.2	91.1	108
RPMI 5 mM glucose + 10% dialyzed FBS, 0.00234 µM	96.9	95.3	104
RPMI 5 mM glucose + 10% dialyzed FBS, 0.00702 µM	98.9	88.2	103
RPMI 5 mM glucose + 10% dialyzed FBS, 0.0211 µM	94.4	92.3	102
RPMI 5 mM glucose + 10% dialyzed FBS, 0.0632 µM	92	90.9	75.4
RPMI 5 mM glucose + 10% dialyzed FBS, 0.19 µM	94.8	89.7	21.7
RPMI 5 mM glucose + 10% dialyzed FBS, 0.569 µM	100	77.7	84.3
RPMI 5 mM glucose + 10% dialyzed FBS, 1.71 µM	82.6	86.9	88.7
RPMI 5 mM glucose + 10% dialyzed FBS, 5.12 µM	101	89.7	98.5
RPMI 5 mM glucose + 10% dialyzed FBS, 15.4 µM	82.8	79.9	93.1
RPMI 5 mM glucose + 10% dialyzed FBS, 46.1 µM	92.3	84.6	96.8

AUC of viability dose-response curve
Conditions	NOMO1 [3]	P12-Ichikawa [4]	SEM cells [5]
HPLM + 10% dialyzed FBS	409	452	394
RPMI 5 mM glucose + 10% FBS	418	435	401
RPMI 5 mM glucose + 10% dialyzed FBS	446	419	422

CN(C)CCCC1(c2ccc(F)cc2)OCc2cc(C#N)ccc21 (configuration not stated)
cell viability [%]
Conditions	NOMO1 [6]	P12-Ichikawa [1]	SEM cells [2]
HPLM + 10% dialyzed FBS, 0.000781 µM	107	98.8	94.8
HPLM + 10% dialyzed FBS, 0.00234 µM	103	96.8	101
HPLM + 10% dialyzed FBS, 0.00702 µM	111	95.5	103
HPLM + 10% dialyzed FBS, 0.0211 µM	90.7	90.1	106
HPLM + 10% dialyzed FBS, 0.0632 µM	100	95.1	100
HPLM + 10% dialyzed FBS, 0.19 µM	94	94.8	94.5
HPLM + 10% dialyzed FBS, 0.569 µM	91.8	91.8	91.7
HPLM + 10% dialyzed FBS, 1.71 µM	106	99.9	96.7
HPLM + 10% dialyzed FBS, 5.12 µM	68.4	69.7	83.6
HPLM + 10% dialyzed FBS, 15.4 µM	88.8	87.7	86.9
HPLM + 10% dialyzed FBS, 46.1 µM	74	74.7	73.6
RPMI 5 mM glucose + 10% FBS, 0.000781 µM	88.5	91	91.5
RPMI 5 mM glucose + 10% FBS, 0.00234 µM	101	83.8	99.4
RPMI 5 mM glucose + 10% FBS, 0.00702 µM	102	88.2	89.4
RPMI 5 mM glucose + 10% FBS, 0.0211 µM	88.9	91.1	99.1
RPMI 5 mM glucose + 10% FBS, 0.0632 µM	98.5	96.4	86.5
RPMI 5 mM glucose + 10% FBS, 0.19 µM	89.5	89.7	96.6
RPMI 5 mM glucose + 10% FBS, 0.569 µM	91.4	87.1	82.4
RPMI 5 mM glucose + 10% FBS, 1.71 µM	106	85.8	93.1
RPMI 5 mM glucose + 10% FBS, 5.12 µM	57.9	83.2	74.2
RPMI 5 mM glucose + 10% FBS, 15.4 µM	79.9	82.5	90.2
RPMI 5 mM glucose + 10% FBS, 46.1 µM	84.4	74.3	78.1
RPMI 5 mM glucose + 10% dialyzed FBS, 0.000781 µM	87.5	90.6	109
RPMI 5 mM glucose + 10% dialyzed FBS, 0.00234 µM	90	97.3	109
RPMI 5 mM glucose + 10% dialyzed FBS, 0.00702 µM	96.4	91.1	106
RPMI 5 mM glucose + 10% dialyzed FBS, 0.0211 µM	85	92.7	108
RPMI 5 mM glucose + 10% dialyzed FBS, 0.0632 µM	90.4	94.4	113
RPMI 5 mM glucose + 10% dialyzed FBS, 0.19 µM	84.5	92.3	120
RPMI 5 mM glucose + 10% dialyzed FBS, 0.569 µM	77.4	89.3	84.1
RPMI 5 mM glucose + 10% dialyzed FBS, 1.71 µM	82.2	91.9	105
RPMI 5 mM glucose + 10% dialyzed FBS, 5.12 µM	55.3	78.5	70.7
RPMI 5 mM glucose + 10% dialyzed FBS, 15.4 µM	81	80.2	92.2
RPMI 5 mM glucose + 10% dialyzed FBS, 46.1 µM	72.6	78.4	76

AUC of viability dose-response curve
Conditions	NOMO1 [3]	P12-Ichikawa [4]	SEM cells [5]
HPLM + 10% dialyzed FBS	425	433	447
RPMI 5 mM glucose + 10% FBS	431	415	426
RPMI 5 mM glucose + 10% dialyzed FBS	392	425	432

Cc1c(CN2CCN([S+](C)(=O)[O-])CC2)sc2c(N3CCOCC3)nc(-c3cnc(N)nc3)nc12
SEM cells [2], RPMI 5 mM glucose + 10% dialyzed FBS
Conditions	cell viability [%]
0.000781 µM	118
0.00234 µM	134
0.00702 µM	122
0.0211 µM	105
0.0632 µM	87.3
0.19 µM	86.6
0.569 µM	98.8
1.71 µM	57.9
5.12 µM	50.8
15.4 µM	50.6
46.1 µM	44

AUC of viability dose-response curve
Conditions	NOMO1 [3]	P12-Ichikawa [4]	SEM cells [5]
HPLM + 10% dialyzed FBS	305	371	287
RPMI 5 mM glucose + 10% FBS	350	336	304
RPMI 5 mM glucose + 10% dialyzed FBS	316	332	328
